Data on 1 compound can be found in the NIST ThermoML archive (doi:10.1021/je900609f).

Structures are written as SMILES. ± gives the expanded uncertainty stated by the source.

For the data set the following is noted: Crystal; visual observation.

Regarding `C=CC(=O)Nc1cc(F)c(Br)c(F)c1` [N-(4-bromo-3,5-difluorophenyl)acrylamide], the Normal melting temperature was found to be 182 ± 0.7 °C.
